The values below come from US20220168442A1, “ARTIFICIAL T-CELL STIMULATING MATRIX FOR IMMUNOTHERAPY” (The Johns Hopkins University, priority 2019, published 2022).

Ends that are not written are not given here.

What all share (format): cell-based, mouse
One experiment concerns murine CD8+ T cells. Put plainly: aLN ex vivo CD8+ T cell expansion and phenotype, day 7. As to the method:
Artificial lymph nodes (aLNs) were synthesized by mixing 0.8 w/v % thiolated HA with either 0.1 or 2 w/v % of the crosslinker PEG-diacrylate (PEGDA), which was pre-mixed with 5 μg/mL thiolated anti-CD3 and anti-CD28 antibodies, and either no protein, 100 μM cyclic RGD, or 20 μg/mL laminin was added. Isolated murine CD8+ T cells were added to the surface of the aLNs. On day 7 viable cells were harvested, counted, and stained for phenotypic markers for flow cytometry (CD8, CD44, CD62L). For in vivo experiments, B6 mice received subcutaneous injection of aLN treatment (no protein, 570 Pa, with antigen-specific stimulation from KbSIY for 2C CD8+ T cells) or PBS. 2C CD8+ T cells were isolated, labeled with CellTrace CFSE dye and injected retro-orbitally on the same day. On days 3 and 6, blood samples were taken for CFSE division analysis via flow cytometry.

The next experiment deals with PMEL CD8+ T cells. Put plainly: aTM with laminin or cyclic RGD attached, T cell expansion. The conditions noted are these: laminin 20 μg/mL or cyclic RGD 100 μM incorporated into aTM. The protocol:
HA solution was prepared as previously described. Anti-CD3 and anti-CD28 antibodies were purchased respectively from BioXCell (145-2C11; West Lebanon, N.H., USA) and BioLegend (37.51; San Diego, Calif., USA). […] PEGDA crosslinker was added to reduced MHC-Ig dimers, anti-CD3 and anti-CD28 antibody solutions to a final concentration of 0.5% PEGDA for preparation for crosslinking. Prior to hydrogel formation, MHC-Ig dimers or anti-CD3 antibodies and anti-CD28 co-stimulatory signals with 0.5% PEGDA were added to the HA solution to directly attach signals on HA through thiol-diene chemistry. The HA-antibody solution was then mixed with PEGDA crosslinker at a 4:1 ratio to be plated. The aTM was allowed to form within flat-bottomed tissue culture plates to form a complete layer for at least 1 hour prior to washing 3 times with 1×PBS to remove any unbound stimulatory signal, and cells were subsequently plated. To investigate the effects of extracellular matrix (ECM) protein attachment, cyclic RGD (CCRRGDWLC (SEQ ID NO: 1)), which was synthesized by solid phase methods as described previously (Li et al., Stem Cells Transl. Med., 3: 662-670 (2014)), or laminin (ThermoFisher) were added to make a HA solution with protein concentration of 100 μM and 20 μg/mL, respectively, prior to the hydrogel formation. […]

The subject of a further experiment is B6 CD8+ T cells. Put plainly: CD8+ T cell fold expansion after seven days of stimulation on aTM. The conditions noted are these: added to culture on 0.5-kPa aTM; 100 μM; same amount of stimulatory ligand. The protocol:
Murine cells were obtained from adult mouse lymph nodes and spleens. Obtained cells were treated with ACK lysing buffer to lyse red blood cells and filtered through cell strainers to isolate splenocytes. PBMCs from healthy donors were isolated by Ficoll-Paque PLUS gradient centrifugation (GE Healthcare). CD8+T lymphocytes were then isolated from splenocytes or PBMCs by negative selection using CD8+ isolation kits and magnetic columns from Miltenyi Biotech (Auburn, Calif., USA) according to the manufacturer's protocol. […]
CD8+ T cells were isolated as previous described and resuspended in 1 mL T cell culture media. […] The CFSE fluorescence intensity was measured using BD FACSCALIBUR™ flow cytometer. Cell proliferation was analyzed using FLOWJO™ with diluted CFSE fluorescence peaks signifying population after each round of cell division. A subset of the cells were allowed to expand for 7 days and viable cells were counted with a hemocytometer to determine fold expansion. […]

“CCRRGDWLC (SEQ ID NO: 1) (also: cyclic (mode not given here)) [cyclic RGD cell-adhesive peptide attached to aTM / aLN]”: in the experiment on murine CD8+ T cells (570-Pa aLN, day 7), the “percent memory T cells” value was “increased”. Further, the “total expansion compared to no protein and laminin” value in the experiment on murine CD8+ T cells (attached to softer aLNs) is reported as “nearly doubled total expansion”. For the same molecule, in the experiment on PMEL CD8+ T cells, the “effect of cell-adhesive ligands on stimulation of antigen-specific PMEL CD8+ T cells” value is “further increased T cell proliferation”. In the case of `Cc1ccc2c(c1)C(=O)C1(O)CCN(c3ccccc3)C1=N2` (centres unmarked) [blebbistatin], the “CD8+ T cell expansion in the presence of the inhibitor” value in the experiment on B6 CD8+ T cells is “abolished”. For laminin, the “percent activated T cells” value in the experiment with murine CD8+ T cells (570-Pa aLN, day 7) is listed as “increased”.
